Where only a bound is given, the exact number is not on record here.

The target of this experiment is T1, MBP-HTT(1-89)Q46-His(6×) (“Exon1-Q46”) protein aggregates (Homo sapiens, UniProt P42858, INS38QQQQQQQQQQQQQQQQQQQQQQQQQ).
T1 construct: MBP-HTT(1-89)Q46-His(6×); His(6×) (C); made in house
T1 sequence (P42858 with tags, fused parts or gaps with the stated changes limits assumed): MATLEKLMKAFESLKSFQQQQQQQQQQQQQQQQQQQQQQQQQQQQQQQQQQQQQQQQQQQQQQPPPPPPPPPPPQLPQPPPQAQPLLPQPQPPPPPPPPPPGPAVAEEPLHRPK
Briefly: Exon1-Q46 Radioligand Binding Assay. The settings on record: displacement of 0.3 nM [3H3-methyl]-5-((5-methoxypyridin-2-yl)methoxy)-2-(pyrazin-2-yl)benzo[d]oxazole from 1 μM aggregated Exon1-Q46, 60 minutes at 37° C.; read-out: Potency Range (IC50). How it is done: Exon1-Q46 Radioligand Binding Assay
For experiments 30 μM MBP-Exon1-Q46 was incubated with 150 μg/mL thrombin in assay buffer (150 mM NaCl, 50 mM Tris pH 8.0) and 2 mM CaCl2 for 16 hours at 37° C. Aggregated Exon1-Q46 was pelleted by centrifugation for 5 minutes at 13,000 rpm in a bench top centrifuge and re-dissolved in the same volume of assay buffer. […] For the RBA, Q46 protein aggregates and test compounds were pre-incubated in assay buffer for 20 minutes at room temperature, in 100 μL/well in a 96-well plate (pp, round bottom). Then, ligand was added in 50 μL/well and incubated for 60 minutes at 37° C. Final assay concentrations were […] test compound, 1 μM Exon1-Q46 protein (equivalent monomer concentration) and 0.3 nM ligand [^3H3-methyl]-5-((5-methoxypyridin-2-yl)methoxy)-2-(pyrazin-2-yl)benzo[d]oxazole. Samples were transferred onto GF/B filter plates and washed 2× with 200 μL PBS using a Filtermate Harvester. After drying filter plates for 1 hour at 55° C., the back of the plates were sealed with foil and 30 μL/well scintillation fluid (Packard MicroScint 40) added, incubated for 15 minutes in the dark and counted in a MicroBeta reader. […] IC50 values were determined with a sigmoidal inhibition model with four variables (top, bottom, slope, IC50) in a global fit using the normalized replicate data.
By IC50 is commonly meant the point on the concentration scale where inhibition reaches its midpoint. Turning to `COc1cncc(NC(=O)CCn2c(=O)c3cccn3c3ccc(F)cc32)c1` [Example 3-11], the half-maximal inhibitory concentration (IC50) is less than 100 nM. The figure for `COc1ccc(NC(=O)CCn2c(=O)c3cccn3c3ccc(F)cc32)cn1` [Example 3-12] is less than 100 nM; for `COc1ccnc(NC(=O)CCn2c(=O)c3cccn3c3ccc(F)cc32)c1` [Example 3-13] it is less than 100 nM; for `COc1ccc(N(C)C(=O)CCn2c(=O)c3cccn3c3ccc(F)cc32)cc1` [Example 3-14] it is less than 100 nM. The figure for `O=C(CCn1c(=O)c2cccn2c2ccc(F)cc21)Nc1ccccc1Cl` [Example 3-15] is less than 100 nM; for `COc1ccccc1NC(=O)CCn1c(=O)c2cccn2c2ccc(F)cc21` [Example 3-16] it is less than 100 nM; for `COc1cccnc1NC(=O)CCn1c(=O)c2cccn2c2ccc(F)cc21` [Example 3-17] it is less than 100 nM. The figure for `O=C(CCn1c(=O)c2cccn2c2ccc(F)cc21)Nc1ccncc1` [Example 3-18] is less than 100 nM; for `O=C(CCn1c(=O)c2cccn2c2ccc(F)cc21)Nc1ccccn1` [Example 3-19] it is less than 100 nM; for `COc1cccc(NC(=O)CCn2c(=O)c3cccn3c3ccc(F)cc32)c1` [Example 3-20] it is less than 100 nM. For `Cc1cccc(NC(=O)CCn2c(=O)c3cccn3c3ccc(F)cc32)c1` [Example 3-21], the half-maximal inhibitory concentration (IC50) was less than 100 nM.

`O=C(CCn1c(=O)c2cccn2c2ccc(F)cc21)Nc1ccccc1` [Example 3-22]: the IC50 was less than 100 nM. In the case of `O=C(CCn1c(=O)c2cccn2c2ccc(F)cc21)Nc1cccnc1` [Example 3-23] it was less than 100 nM; in that of `Cc1ccc(NC(=O)CCn2c(=O)c3cccn3c3ccc(F)cc32)nc1` [Example 3-24], less than 100 nM. For `O=C(CCn1c(=O)c2cccn2c2ccc(F)cc21)Nc1cccc(Cl)c1` [Example 3-25], the concentration for half-maximal inhibition (IC50) is less than 100 nM. In the case of `O=C(CCn1c(=O)c2cccn2c2ccc(F)cc21)Nc1ccc(Cl)cc1` [Example 3-26] it was less than 100 nM; in that of `Cc1ccccc1NC(=O)CCn1c(=O)c2cccn2c2ccc(F)cc21` [Example 3-27], less than 100 nM. `O=C(CCn1c(=O)c2cccn2c2ccc(F)cc21)NCc1ccccc1` [Example 3-28]: the concentration for half-maximal inhibition (IC50) was less than 100 nM. In the case of `COC1CCC(NC(=O)CCn2c(=O)c3cccn3c3ccc(F)cc32)CC1` (stereo not shown) [Example 3-29] it was less than 100 nM; in that of `O=C(CCn1c(=O)c2cccn2c2ccc(F)cc21)NCCc1ccccc1` [Example 3-30], less than 100 nM; in that of `O=C(CCn1c(=O)c2cccn2c2ccc(F)cc21)N1Cc2ccccc2C1` [Example 3-31], less than 100 nM. For the molecule `CC1CCC(NC(=O)CCn2c(=O)c3cccn3c3ccc(F)cc32)CC1` (stereo not shown) [Example 3-32], the IC50 is less than 100 nM. In the case of `O=C(CCn1c(=O)c2cccn2c2ccc(F)cc21)NCCc1cccnc1` [Example 3-33] it was less than 100 nM; in that of `O=C(CCn1c(=O)c2cccn2c2ccc(F)cc21)NC1CCCCC1` [Example 3-34], less than 100 nM.

`O=C(CCn1c(=O)c2cccn2c2ccc(F)cc21)NCC1CCCCC1` [Example 3-35]: the concentration for half-maximal inhibition (IC50) was less than 100 nM. The figure for `CN(C)C(=O)CCn1c(=O)c2cccn2c2ccc(F)cc21` [Example 3-36] is less than 100 nM.

In the case of `O=C(CCn1c(=O)c2cccn2c2ccc(F)cc21)NC1CCCC1` [Example 3-37], the half-maximal inhibitory concentration (IC50) is less than 100 nM. On to `CCNC(=O)CCn1c(=O)c2cccn2c2ccc(F)cc21` [Example 3-38], for which the concentration for half-maximal inhibition (IC50) was less than 100 nM. The figure for `CN(C)CCNC(=O)CCn1c(=O)c2cccn2c2ccc(F)cc21` [Example 3-39] is 100 to 500 nM.

Take `COC1CCN(C(=O)CCn2c(=O)c3cccn3c3ccc(F)cc32)C1` (stereo not shown) [Example 3-40]: the IC50 is less than 100 nM.

For `O=C(CCn1c(=O)c2cccn2c2ccc(F)cc21)N1CCCC(C(F)(F)F)C1` (stereo not shown) [Example 3-41], the IC50 is less than 100 nM. In the case of `O=C(CCn1c(=O)c2cccn2c2ccc(F)cc21)N1CCC(C(F)(F)F)CC1` [Example 3-42] it was less than 100 nM; in that of `O=C(CCn1c(=O)c2cccn2c2ccc(F)cc21)N1CCCC1` [Example 3-43], less than 100 nM; in that of `O=C(CCn1c(=O)c2cccn2c2ccc(F)cc21)N1CCc2ccccc2C1` [Example 3-44], less than 100 nM. In the case of `CC1CCC(N(C)C(=O)CCn2c(=O)c3cccn3c3ccc(F)cc32)CC1` (stereo not shown) [Example 3-45] it was less than 100 nM; in that of `O=C(CCn1c(=O)c2cccn2c2ccc(F)cc21)N1CCc2ccccc21` [Example 3-46], less than 100 nM; in that of `O=C(CCn1c(=O)c2cccn2c2ccc(F)cc21)N1CCCc2ccccc21` [Example 3-47], less than 100 nM. In the case of `COc1cc2c(cn1)CCN(C(=O)CCn1c(=O)c3cccn3c3ccc(F)cc31)C2` [Example 3-48] it was less than 100 nM; in that of `Cn1c2c(ccc1=O)CN(C(=O)CCn1c(=O)c3cccn3c3ccc(F)cc31)CC2` [Example 3-49], less than 100 nM; in that of `O=C(CCn1c(=O)c2cccn2c2ccc(F)cc21)N1CCc2ncccc2C1` [Example 3-50], less than 100 nM. Take `O=C(CCn1c(=O)c2cccn2c2ccc(F)cc21)N1CCc2cnccc2C1` [Example 3-51]: the IC50 is less than 100 nM.

In the case of `O=C(CCn1c(=O)c2cccn2c2ccc(F)cc21)N1CCc2ccncc2C1` [Example 3-52], the 50% inhibitory concentration (IC50) is less than 100 nM.

As to `O=C(CCn1c(=O)c2cccn2c2ccc(F)cc21)N1CCc2cccnc21` [Example 3-53], the IC50 was less than 100 nM. Consider `O=C(CCn1c(=O)c2cccn2c2ccc(F)cc21)N1Cc2ccncc2C1` [Example 3-54], for which the IC50 was less than 100 nM.

For `O=C(CCn1c(=O)c2cccn2c2ccc(F)cc21)N1Cc2cccnc2C1` [Example 3-55], the half-maximal inhibitory concentration (IC50) was less than 100 nM. The figure for `O=C(CCn1c(=O)c2cccn2c2ccc(F)cc21)N1CCc2cccnc2C1` [Example 3-56] is less than 100 nM; for `O=C(CCn1c(=O)c2cccn2c2ccc(F)cc21)N1CCc2ccncc21` [Example 3-57] it is less than 100 nM; for `O=C(CCn1c(=O)c2cccn2c2ccc(F)cc21)N1CCc2cnccc21` [Example 3-58] it is less than 100 nM. The figure for `O=C(CCn1c(=O)c2cccn2c2ccc(F)cc21)N1CCc2ncccc21` [Example 3-59] is less than 100 nM; for `COc1ccc(NC(=O)CCn2c(=O)c3c(C)ccn3c3ccc(F)cc32)nc1` [Example 3-60] it is less than 100 nM; for `COc1ccc(NC(=O)CCn2c(=O)c3c(Cl)ccn3c3ccc(F)cc32)nc1` [Example 3-61] it is less than 100 nM. Take `O=C(CCn1c(=O)c2cc(F)cn2c2ccc(F)cc21)NCc1ccccn1` [Example 3-62]: the IC50 is less than 100 nM.

As for `Cc1ccc(CNC(=O)CCn2c(=O)c3cc(F)cn3c3ccc(F)cc32)nc1` [Example 3-63], the IC50 is less than 100 nM. For the molecule `O=C(CCn1c(=O)c2cc(F)cn2c2ccc(F)cc21)N1Cc2ccncc2C1` [Example 3-64], the IC50 was less than 100 nM. In the case of `O=C(CCn1c(=O)c2cc(F)cn2c2ccc(F)cc21)N1Cc2cccnc2C1` [Example 3-65] it was less than 100 nM; in that of `COc1ccc(NC(=O)CCn2c(=O)c3cc(F)cn3c3ccc(F)cc32)nc1` [Example 3-66], less than 100 nM; in that of `COc1ccc(NC(=O)CCn2c(=O)c3cc(C)cn3c3ccc(F)cc32)nc1` [Example 3-67], less than 100 nM.

With `Cc1ccc(NC(=O)CCn2c(=O)c3cccn3c3ccccc32)cn1` [Example 3-68], the IC50 was less than 100 nM. Consider `Cc1ccc(NC(=O)CCNc2cc(F)ccc2-n2cccn2)cc1` [Example 3-69], for which the IC50 lay in the range of 100 to 500 nM. In the case of `Cc1ccc(NC(=O)CCCn2c(=O)c3cccn3c3ncccc32)cc1` [Example 4-1] it was less than 100 nM; in that of `COc1ccc(NC(=O)CCCn2c(=O)c3cccn3c3ncccc32)cc1` [Example 4-2], less than 100 nM; in that of `COc1cccc(NC(=O)CCCn2c(=O)c3cccn3c3ncccc32)c1` [Example 4-3], less than 100 nM.

`COc1ccnc(NC(=O)CCCn2c(=O)c3cccn3c3ncccc32)c1` [Example 4-4]: the IC50 is less than 100 nM. `COc1cccc(NC(=O)CCCn2c(=O)c3cccn3c3cccnc32)c1` [Example 4-5]: the half-inhibitory concentration (IC50) is less than 100 nM. The figure for `Cc1ccc(NC(=O)CCCn2c(=O)c3cccn3c3cccnc32)cc1` [Example 4-6] is less than 100 nM; for `COc1ccc(NC(=O)CCCn2c(=O)c3cccn3c3cccnc32)cc1` [Example 4-7] it is less than 100 nM; for `COc1ccnc(NC(=O)CCCn2c(=O)c3cccn3c3cccnc32)c1` [Example 4-8] it is less than 100 nM. Consider `COc1ccc(NC(=O)CCCn2c(=O)c3cccn3c3cccnc32)nc1` [Example 4-9], for which the IC50 was less than 100 nM. The figure for `O=C(CCCn1c(=O)c2cccn2c2cccnc21)NC1CCCCCC1` [Example 4-10] is less than 100 nM. The figure for `Cc1ccc(NC(=O)CCCn2c(=O)c3cccn3c3ccccc32)cc1` [Example 5-1] is less than 100 nM.

The values above are taken from patent US11918662B2, “Heterocyclic compounds and imaging agents for imaging huntingtin protein” (CHDI Foundation, Inc., priority 2020, dated 2024).
